pIC50: −log10 of the molar value. A value given as a limit tells only on which side of the number the result lay.

What all share (assay): cells
In one assay the test system is COLO-829. Type of assay: functional, cell-based, Homo sapiens. The settings on record: Homo sapiens, COLO-829.
In the next assay the test system is CTV-1. The class given is functional, cell-based. The settings on record: Homo sapiens.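 Further: growth inhibition of the cell line, read out with a cell viability assay.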
The test system of the next assay is GR-ST. Type of assay: functional, cell-based. Conditions: Homo sapiens.
The next assay relates to K562. The class given is functional, cell-based. The settings on record: Homo sapiens.
Another assay relates to KARPAS-45. The class given is functional, cell-based. Conditions: Homo sapiens.
The subject of another assay is KE-37. Type of assay: functional, cell-based. The settings on record: Homo sapiens.
In a further assay the test system is KMOE-2. Type of assay: functional, cell-based. Conditions: Homo sapiens.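 Further: growth inhibition of human KMOE-2 cells, read out with a cell viability assay.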
In the next assay the test system is KU812 cell line. Type of assay: functional, cell-based. The settings on record: Homo sapiens.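 Further: growth inhibition of KU812 cells, read out with a cell viability assay.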
In the next assay the test system is LB2241-RCC. The class given is functional, cell-based, Homo sapiens. Conditions: Homo sapiens, LB2241-RCC.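 Further: cell viability assay measuring how strongly the cultured human renal carcinoma line is prevented from growing.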
The test system of a further assay is MHH-NB-11. The class given is functional, cell-based, Homo sapiens. The settings on record: Homo sapiens, MHH-NB-11.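 Further: growth inhibition of human MHH-NB-11 cells, read out by a cell viability assay.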
In another assay the test system is MLMA. The class given is functional, cell-based, Homo sapiens. Conditions: Homo sapiens, MLMA.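 Further: growth inhibition of MLMA cells (human), determined through a cell viability readout.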
For another assay, the system named is MPP-89. The class given is functional, cell-based, Homo sapiens. Conditions: Homo sapiens, MPP-89.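 Further: growth inhibition of human MPP-89 cells, read out with a cell viability assay.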
The next assay has as its system MZ1-PC. The class given is functional, cell-based, Homo sapiens. The settings on record: Homo sapiens, MZ1-PC.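 Further: cell viability assay measuring growth inhibition of human MZ1-PC cells.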
A further assay concerns NCI-H23. The class given is functional, cell-based, Homo sapiens. The settings on record: Homo sapiens, NCI-H23.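 Further: cell viability assay measuring growth inhibition of NCI-H23 cells.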
A further assay deals with NH-12. The class given is functional, cell-based, Homo sapiens. Conditions: Homo sapiens, NH-12.
For another assay, the system named is NMC-G1. The class given is functional, cell-based, Homo sapiens. Conditions: Homo sapiens, NMC-G1.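 Further: growth inhibition of the NMC-G1 cell line, measured with a cell viability read-out.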
The next assay concerns SK-PN-DW. The class given is functional, cell-based. Conditions: Homo sapiens.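 Further: growth inhibition measured with a viability assay on these cells.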
Another assay has as its system SW684. The class given is functional, cell-based, Homo sapiens. The settings on record: Homo sapiens, SW684.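 Further: growth inhibition of human SW684 cells, measured by a cell viability assay.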
The test system of another assay is TE-1. Type of assay: functional, cell-based, Homo sapiens. Conditions: Homo sapiens, TE-1.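 Further: growth inhibition of the human TE-1 cell line, read out with a cell viability assay.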
Another assay concerns TGW. Type of assay: functional, cell-based. The settings on record: Homo sapiens.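 Further: growth inhibition of human TGW cells, read out with a cell viability assay.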
In the next assay the test system is TK-10. Type of assay: functional, cell-based, Homo sapiens. The settings on record: Homo sapiens, TK-10.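 Further: growth inhibition of TK-10 cells, read out in a cell viability assay.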
For the next assay, the system named is HCE-4. Type of assay: functional, cell-based, Homo sapiens. The settings on record: Homo sapiens, HCE-4.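 Further: cell viability assay measuring inhibition of growth in the human HCE-4 cell line.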
A further assay deals with SNU-C2B. Type of assay: functional, cell-based, Homo sapiens. The settings on record: Homo sapiens, SNU-C2B.

Description for COLO-829: SANGER: Inhibition of human COLO-829 cell growth in a cell viability assay.
Description for CTV-1: SANGER: Inhibition of human CTV-1 cell growth in a cell viability assay.
Description for GR-ST: SANGER: Inhibition of human GR-ST cell growth in a cell viability assay.
Description for HCE-4: SANGER: Inhibition of human HCE-4 cell growth in a cell viability assay.
Description for K562: SANGER: Inhibition of human K-562 cell growth in a cell viability assay.
Description for KARPAS-45: SANGER: Inhibition of human KARPAS-45 cell growth in a cell viability assay.
Description for KMOE-2: SANGER: Inhibition of human KMOE-2 cell growth in a cell viability assay.
Description for KU812 cell line: SANGER: Inhibition of human KU812 cell growth in a cell viability assay.
Description for LB2241-RCC: SANGER: Inhibition of human LB2241-RCC cell growth in a cell viability assay.
Description for MHH-NB-11: SANGER: Inhibition of human MHH-NB-11 cell growth in a cell viability assay.
Description for MLMA: SANGER: Inhibition of human MLMA cell growth in a cell viability assay.
Description for MPP-89: SANGER: Inhibition of human MPP-89 cell growth in a cell viability assay.
Description for MZ1-PC: SANGER: Inhibition of human MZ1-PC cell growth in a cell viability assay.
Description for NH-12: SANGER: Inhibition of human NH-12 cell growth in a cell viability assay.
Description for NMC-G1: SANGER: Inhibition of human NMC-G1 cell growth in a cell viability assay.
Description for SK-PN-DW: SANGER: Inhibition of human SK-PN-DW cell growth in a cell viability assay.
Description for SNU-C2B: SANGER: Inhibition of human SNU-C2B cell growth in a cell viability assay.
Description for SW684: SANGER: Inhibition of human SW684 cell growth in a cell viability assay.
Description for TE-1: SANGER: Inhibition of human TE-1 cell growth in a cell viability assay.
Description for TGW: SANGER: Inhibition of human TGW cell growth in a cell viability assay.
Description for TK-10: SANGER: Inhibition of human TK10 cell growth in a cell viability assay.

For `CC1=C2C[C@H]3[C@@H](CC=C4C[C@@H](O)CC[C@@]43C)[C@@H]2CC[C@]12O[C@@H]1C[C@H](C)CN[C@H]1[C@H]2C` [CYCLOPAMINE], the pIC50 in the assay with COLO-829, with CTV-1, in the assay on GR-ST, in the assay on K562, in the assay with KARPAS-45 and with KE-37 was less than 4.80 in each case. For the same compound, the negative logarithm of the IC50 (pIC50) in the assay with KMOE-2, in the assay with KU812 cell line, in the assay with LB2241-RCC, in the assay with MHH-NB-11, with MLMA and in the assay on MPP-89 was less than 4.80 each time. The negative-log IC50 (pIC50) in the assay with MZ1-PC, in the assay on NCI-H23, with NH-12, in the assay on NMC-G1, with SK-PN-DW and with SW684 was less than 4.80 in each case. In addition, the pIC50 in the assay with TE-1, in the assay on TGW and in the assay with TK-10 was less than 4.80 each time.
In the case of `CNC(=O)c1cc(Oc2ccc(NC(=O)Nc3ccc(Cl)c(C(F)(F)F)c3)cc2)ccn1` [SORAFENIB], the pIC50 with COLO-829, in the assay on CTV-1, in the assay on GR-ST, with K562, with KARPAS-45 and in the assay on KE-37 was less than 5.40 in each case. The pIC50 – broadly, −log10 of the IC50, conventionally taken in molar units – was 5.55 in the assay with KMOE-2; less than 5.40 in the assay with KU812 cell line; less than 5.40 in the assay with LB2241-RCC; less than 5.40 with MHH-NB-11; less than 5.40 in the assay with MLMA; less than 5.40 in the assay with MPP-89. For the same compound, the pIC50 was 5.46 in the assay on MZ1-PC; less than 5.40 with NCI-H23; less than 5.40 in the assay with NH-12; less than 5.40 with NMC-G1; less than 5.40 in the assay with SK-PN-DW; less than 5.40 in the assay on SW684. Also, the pIC50 in the assay with TE-1, in the assay with TGW and with TK-10 was less than 5.40 throughout.
For the compound `Cc1cc(Nc2cc(N3CCN(C)CC3)nc(Sc3ccc(NC(=O)C4CC4)cc3)n2)n[nH]1` [TOZASERTIB], the pIC50 in the assay with COLO-829 is less than 5.70; in the assay with CTV-1 it was 6.23; in the assay with GR-ST, less than 5.70; in the assay with HCE-4, 6.06; in the assay with K562, 6.36; in the assay on KARPAS-45 it was less than 5.70. The negative logarithm of the IC50 (pIC50) with KE-37 is 6.28; in the assay on KMOE-2, less than 5.70; with KU812 cell line, less than 5.70; in the assay with LB2241-RCC, less than 5.70; in the assay with MHH-NB-11 it was less than 5.70; with MLMA, less than 5.70. For the same compound, the pIC50 in the assay on MPP-89 is less than 5.70; in the assay on MZ1-PC, less than 5.70; with NCI-H23, less than 5.70; in the assay on NH-12, less than 5.70; in the assay on NMC-G1, less than 5.70; with SK-PN-DW it was 6.10. For the same compound, the pIC50 in the assay on SNU-C2B, in the assay on SW684, with TE-1, in the assay with TGW and in the assay with TK-10 was less than 5.70 throughout.
Take `CO[C@H]1C[C@@H]2CC[C@@H](C)[C@@](O)(O2)C(=O)C(=O)N2CCCC[C@H]2C(=O)O[C@H]([C@H](C)C[C@@H]2CC[C@@H](O)[C@H](OC)C2)CC(=O)[C@H](C)/C=C(\C)[C@@H](O)[C@@H](OC)C(=O)[C@H](C)C[C@H](C)/C=C/C=C/C=C/1C` [SIROLIMUS]: the pIC50 in the assay with COLO-829 was less than 7.00; in the assay with CTV-1, less than 7.00; with GR-ST it was 9.07; in the assay on HCE-4 it was less than 7.00; in the assay with K562 it was less than 7.00; in the assay on KARPAS-45 it was less than 7.00. Further, the pIC50 was 7.79 in the assay on KE-37; less than 7.00 in the assay on KMOE-2; 8.70 in the assay with KU812 cell line; less than 7.00 in the assay with LB2241-RCC; less than 7.00 in the assay on MHH-NB-11; less than 7.00 in the assay with MLMA. The pIC50 was less than 7.00 with MPP-89; less than 7.00 with MZ1-PC; less than 7.00 in the assay on NCI-H23; less than 7.00 in the assay on NH-12; 7.47 in the assay on NMC-G1; 7.69 in the assay with SK-PN-DW. For the same compound, the negative logarithm of the IC50 (pIC50) in the assay with SNU-C2B, in the assay with SW684, in the assay on TE-1, with TGW and in the assay on TK-10 was less than 7.00 in each case.
Consider `O=C(/C=C/c1ccccc1)NC(NC(=S)Nc1cccc2cccnc12)C(Cl)(Cl)Cl` (stereo not given) [SALUBRINAL], for which the pIC50 in the assay on COLO-829 was less than 4.80; in the assay with CTV-1, less than 4.80; in the assay with GR-ST it was less than 4.80; in the assay on K562 it was 4.96; in the assay with KARPAS-45, less than 4.80; in the assay with KE-37, 4.82. The pIC50 in the assay on KMOE-2 was 4.88; in the assay on KU812 cell line it was less than 4.80; in the assay with LB2241-RCC, 5.30; with MHH-NB-11, less than 4.80; with MLMA, less than 4.80; with MPP-89 it was less than 4.80. The pIC50 with MZ1-PC, with NCI-H23, with NH-12, with NMC-G1, in the assay on SK-PN-DW and in the assay on SW684 was less than 4.80 in each case. Moreover, the pIC50 in the assay with TE-1, in the assay with TGW and with TK-10 was less than 4.80 in each case.
Take `CS(=O)(=O)CCNCc1ccc(-c2ccc3ncnc(Nc4ccc(OCc5cccc(F)c5)c(Cl)c4)c3c2)o1` [LAPATINIB]: the pIC50 in the assay on COLO-829, with CTV-1, with GR-ST, in the assay with K562, in the assay on KARPAS-45 and in the assay on KE-37 was less than 5.70 each time. The pIC50 with KMOE-2 was less than 5.70; in the assay on KU812 cell line, less than 5.70; with LB2241-RCC, 5.94; in the assay on MHH-NB-11, less than 5.70; in the assay with MLMA, less than 5.70; in the assay with MPP-89, less than 5.70. The pIC50 in the assay on MZ1-PC, with NCI-H23, with NH-12, in the assay with NMC-G1, with SK-PN-DW and in the assay on SW684 was less than 5.70 throughout. The pIC50 in the assay with TE-1, in the assay on TGW and in the assay on TK-10 was less than 5.70 each time.
Consider `CCC(=O)N1CCN(c2ccc(-n3c(=O)ccc4cnc5ccc(-c6cnc7ccccc7c6)cc5c43)cc2C(F)(F)F)CC1` [TORIN1], for which the pIC50 is 6.68 in the assay with COLO-829; 7.18 in the assay on CTV-1; 7.58 in the assay with GR-ST; 7.41 with HCE-4; 7.04 with K562; 6.11 in the assay with KARPAS-45. For the same compound, the negative logarithm of the IC50 (pIC50) in the assay with KE-37 is 7.80; with KMOE-2 it was 6.56; in the assay with KU812 cell line, 7.89; in the assay with LB2241-RCC, less than 5.92; in the assay with MHH-NB-11 it was less than 5.92; in the assay on MLMA, 7.17. Also, the pIC50 was 6.74 with MPP-89; 7.18 with MZ1-PC; 7.07 in the assay with NCI-H23; less than 5.92 in the assay on NH-12; 7.46 in the assay on NMC-G1; 7.31 with SK-PN-DW. Moreover, the pIC50 in the assay with SNU-C2B is 6.61; in the assay with SW684, less than 5.92; with TE-1, 6.55; in the assay on TGW it was 6.43; with TK-10, 7.40.
Turning to `C=C1C(=O)O[C@@H]2C3O[C@]3(C)CC/C=C(\C)CC[C@@H]12` (stereo not given in full), the pIC50 in the assay on COLO-829, in the assay on CTV-1, in the assay with GR-ST, in the assay on K562, in the assay with KARPAS-45 and in the assay on KE-37 was less than 5.30 in each case. In addition, the pIC50 with KMOE-2, in the assay on KU812 cell line, with LB2241-RCC, with MHH-NB-11, in the assay with MLMA and in the assay with MPP-89 was less than 5.30 each time. The pIC50 with MZ1-PC, in the assay on NCI-H23, in the assay with NH-12, in the assay with NMC-G1, with SK-PN-DW and with SW684 was less than 5.30 throughout. The negative logarithm of the IC50 (pIC50) in the assay on TE-1, in the assay with TGW and in the assay on TK-10 was less than 5.30 throughout.
With `CCc1nc(N)nc(N)c1-c1ccc(Cl)cc1` [PYRIMETHAMINE], the negative logarithm of the IC50 (pIC50) in the assay on COLO-829 was 5.14; in the assay on CTV-1, 5.61; in the assay on GR-ST it was 6.15; with K562, less than 4.70; in the assay with KARPAS-45, less than 4.70; with KE-37, 4.99. Besides, the pIC50 is less than 4.70 with KMOE-2; 4.81 in the assay on KU812 cell line; less than 4.70 in the assay on LB2241-RCC; 4.86 in the assay with MHH-NB-11; less than 4.70 in the assay with MLMA; less than 4.70 in the assay with MPP-89. Also, the pIC50 was less than 4.70 in the assay with MZ1-PC; 5.18 in the assay with NCI-H23; less than 4.70 with NH-12; less than 4.70 with NMC-G1; less than 4.70 with SK-PN-DW; less than 4.70 with SW684. Besides, the pIC50 in the assay on TE-1 is 5.00; in the assay with TGW it was less than 4.70; in the assay with TK-10, 5.13.

These data come from ChEMBL document CHEMBL1201861, “Genomics of Drug Sensitity in Cancer screening data, Wellcome Trust Sanger Institute”.
